From patent US4528190A, “GRF Analogs IV” (The Salk Institute For Biological Studies, priority 1984, dated 1985) come the findings set out here.

In the assay the test system is cells of rat pituitary glands. The assay is described as follows: in vitro GH release from cultured rat pituitary cells, compared side by side with synthetic hpGRF(1-40)-OH as standard. It is filed as cell-based. The conditions noted are these: GH release relative to standard hGRF(1-40)-OH = 100%; equimolar concentrations; incubation 3 to 4 hours; immunoreactive GH by radioimmunoassay. As for the experimental part: To determine the relative effectiveness of certain representative synthetic peptides to promote the release of growth hormone, in vitro assays are carried out using synthetic hpGRF(1-40)-OH as a standard in side-by-side comparison with equimolar concentrations of the representative analogs which have been synthesized. Cultures are used which include cells of rat pituitary glands removed some three to five days previously. Such cultures are considered optimal for the secretion of growth hormone and are used for the comparative testing, in the general manner described in Vale et al. Endocrinology, 91, 562-572 (1972) and as more particularly described in Vale et al. Endocrinology, 112, 1553-1555 (1983). Incubation with the substance to be tested is carried out for 3 to 4 hours, and aliquots of the culture medium are removed and processed to measure their contents in immunoreactive GH(ir GH) by a well-characterized radioimmunoassay.

Square brackets hold non-standard residues; d marks the D form. Ends that are not written are not given here. Peptide text beside a SMILES is read from it. Nle = CCCC[C@H](N)C(=O)O

Molecule `CCCC[C@H](NC(=O)[C@@H](NC(=O)[C@H](CCC(=O)O)NC(=O)[C@H](Cc1c[nH]cn1)NC(=O)[C@H](CC(C)C)NC(=O)[C@H](CC(C)C)NC(=O)[C@H](CCCCN)NC(=O)[C@H](CCCNC(=N)N)NC(=O)[C@H](C)NC(=O)[C@H](Cc1ccc(O)cc1)NC(=O)[C@H](CC(C)C)NC(=O)[C@H](CCC(N)=O)NC(=O)CNC(=O)[C@@H](CC(C)C)NC(=O)[C@@H](NC(=O)[C@H](CCCNC(=N)N)NC(=O)[C@H](CCCNC(=N)N)NC(=O)[C@H](Cc1ccc(O)cc1)NC(=O)[C@H](CO)NC(=O)[C@H](CO)NC(=O)[C@@H](NC(=O)[C@H](Cc1ccccc1)NC(=O)[C@@H](NC(=O)[C@H](C)NC(=O)[C@H](CC(=O)O)NC(=O)[C@H](C)NC(=O)[C@@H](N)Cc1c[nH]cn1)[C@@H](C)CC)[C@@H](C)O)[C@@H](C)CC)[C@@H](C)CC)C(=O)N[C@@H](CC(N)=O)C(=O)N[C@@H](CCCNC(=N)N)C(N)=O` [[D-Leu^14, Nle^27]-rGRF(1-29)-NH2] (H-HADAIFTSSYRRI[dL]GQLYARKLLHEI[Nle]NR-NH2) registered a Comparison % of 120%.

`CCCC[C@H](NC(=O)[C@@H](NC(=O)[C@H](CCC(=O)O)NC(=O)[C@H](Cc1c[nH]cn1)NC(=O)[C@H](CC(C)C)NC(=O)[C@H](CC(C)C)NC(=O)[C@H](CCCCN)NC(=O)[C@H](CCCNC(=N)N)NC(=O)[C@H](C)NC(=O)[C@H](Cc1ccc(O)cc1)NC(=O)[C@H](CC(C)C)NC(=O)[C@H](CCC(N)=O)NC(=O)CNC(=O)[C@H](CC(C)C)NC(=O)[C@@H](NC(=O)[C@H](CCCNC(=N)N)NC(=O)[C@H](CCCNC(=N)N)NC(=O)[C@H](Cc1ccc(O)cc1)NC(=O)[C@H](CO)NC(=O)[C@H](CO)NC(=O)[C@@H](NC(=O)[C@H](Cc1ccccc1)NC(=O)[C@@H](NC(=O)[C@H](C)NC(=O)[C@H](CC(=O)O)NC(=O)[C@H](C)NC(=O)[C@@H](N)Cc1c[nH]cn1)[C@@H](C)CC)[C@@H](C)O)[C@@H](C)CC)[C@@H](C)CC)C(=O)N[C@@H](CC(N)=O)C(=O)N[C@H](CCCNC(=N)N)C(N)=O` [[Nle^27, D-Arg^29]-rGRF(1-29)-NH2] (H-HADAIFTSSYRRILGQLYARKLLHEI[Nle]N[dR]-NH2) yielded a Comparison % of 386%.

In the case of “hGRF(1-40)-OH (YADAIFTNSYRKVLGQLSARKLLQDIMSRQQGESNQERGA-OH; UniProt P01286 32-71, looked up, fragment) [synthetic human pancreatic (tumor) GH releasing factor, residues 1-40, free acid; standard for the tests, reference compound]”, the Comparison % was 100%.
